In patent publication EP1247803A2, “Indolinone compounds suitable for modulation of protein kinases” (Sugen, Inc., priority 1996, dated 1998):

Assays:
FLK-1 receptor = molecular target: T1, FLK-1 receptor (Mus musculus, UniProt P35918); test: FLK-1 ELISA (kinase activity of the FLK-1 receptor in FLK-1/NIH3T3 cells, VEGF stimulated); format: cell-based
T1 construct: expressed in transfected cells; host or cells: NIH3T3 C7#3
How it was run: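 NIH3T3 C7#3 cells expressing FLK-1 were seeded at 25.000 cells/well, serum-starved overnight in 0.1% FBS, then treated with compound for two hours at 37°C (final DMSO 0.5%) before VEGF stimulation. Receptor was captured on anti-rabbit IgG-coated ELISA plates bearing affinity-purified anti-FLK-1 antiserum.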

PDGF-R = PDGF-R (Homo sapiens, UniProt P09619); test: PDGF-R ELISA; format: cell-based
From the text: A PDGF-R ELISA is described in International Patent Publication No. WO 96/40116, published December 19, 1996 by Tang et al.

MET = MET biochemical kinase assay; design: species or system human; concentration or dose not given beside the values
How it was run: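 MET from cell lysates captured on ELISA plates via rabbit anti-MET cytoplasmic-domain antibody; compounds added and kinase reaction run in ATP and divalent-metal buffer. Receptor phosphotyrosine detected with HRP-conjugated anti-phosphotyrosine antibody and TMB colorimetry.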

Chain of PDGF-R (P09619 33-1106, species assumed): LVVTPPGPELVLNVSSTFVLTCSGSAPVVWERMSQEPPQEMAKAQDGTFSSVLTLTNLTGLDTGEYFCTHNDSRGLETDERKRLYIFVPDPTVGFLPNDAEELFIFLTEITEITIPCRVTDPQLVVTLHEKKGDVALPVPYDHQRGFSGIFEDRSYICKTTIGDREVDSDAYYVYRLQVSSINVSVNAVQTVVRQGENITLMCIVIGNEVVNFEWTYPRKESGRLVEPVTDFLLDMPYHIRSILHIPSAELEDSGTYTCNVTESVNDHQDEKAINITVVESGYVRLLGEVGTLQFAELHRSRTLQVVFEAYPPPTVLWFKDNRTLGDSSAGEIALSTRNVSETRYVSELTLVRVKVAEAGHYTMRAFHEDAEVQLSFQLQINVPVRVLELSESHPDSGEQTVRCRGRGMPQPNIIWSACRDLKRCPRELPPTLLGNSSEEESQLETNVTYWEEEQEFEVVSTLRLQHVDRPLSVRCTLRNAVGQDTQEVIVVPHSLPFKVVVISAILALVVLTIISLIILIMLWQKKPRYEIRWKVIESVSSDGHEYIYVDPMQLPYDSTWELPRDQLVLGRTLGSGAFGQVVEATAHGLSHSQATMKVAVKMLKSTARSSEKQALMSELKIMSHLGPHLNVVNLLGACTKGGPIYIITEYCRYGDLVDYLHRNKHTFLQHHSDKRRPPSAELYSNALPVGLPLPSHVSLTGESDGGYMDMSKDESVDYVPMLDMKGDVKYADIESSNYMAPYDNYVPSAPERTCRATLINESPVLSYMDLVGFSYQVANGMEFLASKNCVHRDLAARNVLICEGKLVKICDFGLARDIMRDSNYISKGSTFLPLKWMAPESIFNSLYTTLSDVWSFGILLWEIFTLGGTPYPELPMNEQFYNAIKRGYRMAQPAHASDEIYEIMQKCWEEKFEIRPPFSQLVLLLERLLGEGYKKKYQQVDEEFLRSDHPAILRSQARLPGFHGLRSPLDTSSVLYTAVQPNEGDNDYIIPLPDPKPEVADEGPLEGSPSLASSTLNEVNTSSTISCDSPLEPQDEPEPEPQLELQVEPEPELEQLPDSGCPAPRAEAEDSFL
T1 sequence (P35918 20-1345): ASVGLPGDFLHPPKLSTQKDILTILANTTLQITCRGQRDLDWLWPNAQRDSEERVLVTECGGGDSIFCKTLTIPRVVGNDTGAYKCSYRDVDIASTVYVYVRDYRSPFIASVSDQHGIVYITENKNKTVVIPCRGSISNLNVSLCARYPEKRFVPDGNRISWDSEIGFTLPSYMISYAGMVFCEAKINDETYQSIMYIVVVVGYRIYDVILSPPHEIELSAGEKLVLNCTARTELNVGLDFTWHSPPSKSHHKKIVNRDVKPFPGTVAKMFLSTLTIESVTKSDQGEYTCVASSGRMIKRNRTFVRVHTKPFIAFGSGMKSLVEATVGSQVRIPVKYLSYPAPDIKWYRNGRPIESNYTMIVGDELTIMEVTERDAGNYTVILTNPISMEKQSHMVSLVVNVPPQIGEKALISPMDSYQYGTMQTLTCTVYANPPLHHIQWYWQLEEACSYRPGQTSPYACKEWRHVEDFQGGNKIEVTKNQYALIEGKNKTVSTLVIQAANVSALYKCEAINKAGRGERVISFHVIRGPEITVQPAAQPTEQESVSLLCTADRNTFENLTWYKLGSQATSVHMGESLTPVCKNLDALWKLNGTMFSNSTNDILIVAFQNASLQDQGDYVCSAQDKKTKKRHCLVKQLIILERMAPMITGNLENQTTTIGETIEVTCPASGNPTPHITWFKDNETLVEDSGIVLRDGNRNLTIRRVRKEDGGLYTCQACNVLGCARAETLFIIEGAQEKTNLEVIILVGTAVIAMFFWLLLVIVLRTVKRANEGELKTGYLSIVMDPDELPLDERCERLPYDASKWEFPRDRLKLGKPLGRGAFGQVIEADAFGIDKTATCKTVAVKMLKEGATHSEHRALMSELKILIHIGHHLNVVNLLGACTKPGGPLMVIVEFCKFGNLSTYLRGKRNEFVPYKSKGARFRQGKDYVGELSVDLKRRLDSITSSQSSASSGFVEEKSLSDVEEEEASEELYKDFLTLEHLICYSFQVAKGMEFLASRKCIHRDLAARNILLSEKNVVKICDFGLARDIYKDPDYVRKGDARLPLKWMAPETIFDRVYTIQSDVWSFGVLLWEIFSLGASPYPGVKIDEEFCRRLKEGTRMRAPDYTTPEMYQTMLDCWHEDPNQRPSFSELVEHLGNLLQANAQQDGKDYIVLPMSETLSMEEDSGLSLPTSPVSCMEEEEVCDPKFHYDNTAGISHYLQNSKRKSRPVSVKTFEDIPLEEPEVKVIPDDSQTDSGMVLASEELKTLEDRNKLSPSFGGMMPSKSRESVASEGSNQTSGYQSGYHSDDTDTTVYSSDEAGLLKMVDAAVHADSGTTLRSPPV

SMILES	Fik Kinase %Inhibition (FLK-1 receptor) [%]	PDGF Kinase %Inhibition (PDGF-R) [%]	Met Kinase % Inhibition (MET) [%]
CCOC(=O)c1[nH]c(C=C2C(=O)Nc3ccc(S(=O)(=O)Nc4ccc(C(F)(F)F)cc4)cc32)c(C(=O)OC)c1C [10726/E03]	-5.5	20.2	62.4
CCN(CC)c1ccc(C=C2C(=O)Nc3ccc(Br)c(C)c32)cc1 [10727/C02]	-2.0	-12.5	73.8
CNS(=O)(=O)c1ccc2c(c1)C(=C1C(=O)Nc3ccccc31)C(=O)N2 [10726/D09]	14.4	22.1	45.7
COc1cccc(C=C2C(=O)Nc3c(Br)cc(Br)cc32)c1OC [10727/A11]	7.4	10.8	16.5
O=C1Nc2ccccc2C1=C1C(=O)Nc2ccc(S(=O)(=O)N3CCOCC3)cc21 [10726/F09]	9.6	-2.6	66.8
O=C1Nc2ccc(CCCl)cc2C1=Cc1ccc(Br)o1 [10726/G05]	14.9	6.2	81.1
CNS(=O)(=O)c1ccc2c(c1)C(=Cc1cc(C)c(O)c(C(C)(C)C)c1)C(=O)N2 [10726/D04]	7.8	34.1	62.9
CCc1cc(CC)c(C=C2C(=O)Nc3ccc(S(=O)(=O)NC)cc32)[nH]1 [10727/D03]	3.1	-3.0	24.0
Cc1cc(C=C2C(=O)Nc3ccc(CCCl)cc32)cc(C(C)(C)C)c1O [10726/G04]	9.7	14.5	72.8
CCc1cc(CC)c(C=C2C(=O)Nc3c(Br)cc(Br)cc32)[nH]1 [10727/A03]	6.3	-4.5	40.7
CNS(=O)(=O)c1ccc2c(c1)C(=Cc1ccc(Br)o1)C(=O)N2 [10726/D05]	8.2	39.1	51.2
O=C1Nc2ccccc2C1=C1C(=O)Nc2ccc(CCCl)cc21 [10726/G09]	3.6	13.2	42.4
O=C1Nc2ccc(I)cc2C1=Cc1cc2c(cc1Cl)OCO2 [10727/B06]	-3.9	6.4	91.0
CCc1ccc(C=C2C(=O)Nc3ccc(CCCl)cc32)s1 [10726/G10]	10.5	-7.0	26.8
O=C1Nc2ccc(S(=O)(=O)N3CCOCC3)cc2C1=Cc1ccc(Br)o1 [10726/F05]	8.9	-17.8	51.2
CCN(CC)c1ccc(C=C2C(=O)Nc3c(Br)cc(Br)cc32)cc1 [10727/A02]	-1.3	-10.3	52.0

SMILES	Fik Kinase %Inhibition (FLK-1 receptor) [%]	PDGF Kinase %Inhibition (PDGF-R) [%]	Met Kinase % Inhibition (MET) [%]
O=C1Nc2c(Br)cc(Br)cc2C1=Cc1cc2c(cc1Cl)OCO2 [10727/A06]	-17.1	13.7	32.7
COc1cccc(C=C2C(=O)Nc3ccc(I)cc32)c1OC [10727/B11]	16.8	15.9	69.8
N#Cc1cccc(C=C2C(=O)Nc3c(Br)cc(Br)cc32)c1 [10727/A08]	-0.6	15.2	9.7
O=C1Nc2c(Br)cc(Br)cc2C1=Cc1cc(Cl)cc(Br)c1O [10727/A04]	-4.6	12.3	80.9
CCc1ccc(C=C2C(=O)Nc3ccc(S(=O)(=O)NC)cc32)s1 [10726/D10]	14.7	32.2	35.3
CNS(=O)(=O)c1ccc2c(c1)C(=Cc1cc(O)c3c(c1O)CCCC3)C(=O)N2 [10726/D07]	-26.9	-81.0	84.6
CCOC(=O)c1[nH]c(C=C2C(=O)Nc3ccc(S(=O)(=O)N4CCOCC4)cc32)c(C(=O)OC)c1C [10726/F03]	8.3	5.6	54.1
O=C1Nc2ccc(S(=O)(=O)N3CCOCC3)cc2C1=Cc1cc(O)c2c(c1O)CCCC2 [10726/F07]	9.6	-99.4	96.1
O=C1Nc2c(Br)cc(Br)cc2C1=Cc1ccccc1Sc1ccc(Cl)cc1 [10727/A05]	4.2	5.7	29.0
CCc1cc(CC)c(C=C2C(=O)Nc3ccc(Br)c(C)c32)[nH]1 [10727/C03]	-3.2	11.5	11.9
N#Cc1cccc(C=C2C(=O)Nc3ccc(I)cc32)c1 [10727/B08]	4.0	14.4	90.7
O=C1Nc2c(Br)cc(Br)cc2C1=Cc1cc(O)ccc1O [10727/A10]	-6.4	18.1	95.2
O=C1Nc2ccc(F)cc2C1=C1C(=O)Nc2ccc(S(=O)(=O)N3CCOCC3)cc21 [10726/F08]	15.3	28.4	67.3
Cc1c(Br)ccc2c1C(=Cc1cc(O)ccc1O)C(=O)N2 [10727/C10]	-35.3	45.7	94.4
O=C1Nc2ccc(I)cc2C1=Cc1cc(O)ccc1O [10727/B10]	3.9	29.7	99.2
